# Test results published in patent US12059420B2 (BRISTOL-MYERS SQUIBB COMPANY, priority 2018, dated 2024).
# pIC50: −log10 of the molar value. Structures can show the parent of a compound that is named as a salt.
# Molecular target: T1, human IDO1 (Homo sapiens, UniProt P14902)
# T1 construct: expressed in transfected cells
# Test: IDO inhibition assay in HEK293 cells stably expressing human IDO1 (kynurenine production, Ehrlich reagent, absorbance 490 nm)
# Type: cell-based
# Conditions: 20 hours incubation with compound, 500 nM reference standard = 100% inhibition, read-out: IDO1 HEK Human IC50
# Description: HEK293 cells were transfected with a pCDNA-based mammalian expression vector harboring human IDO1 cDNA (NM 002164.2) by electroporation. They were cultured in medium (DMEM with 10% FBS) containing 1 mg/ml G418 for two weeks. Clones of HEK293 cells that stably expressed human IDO1 protein were selected and expanded for IDO inhibition assay.
# The human IDO1/HEK293 cells were seeded at 10,000 cells per 50 μL per well with RPMI/phenol red free media contains 10% FBS in a 384-well black wall clear bottom tissue culture plate (Matrix Technologies LLC) 100 nL of certain concentration of compound was then added to each well using ECHO liquid handling systems. The cells were incubated for 20 hours in 37° C. incubator with 5% CO2.
# The compound treatments were stopped by adding trichloroacetic acid (Sigma-Aldrich) to a final concentration at 0.2%. The cell plate was further incubated at 50° C. for 30 minute. The equal volume supernatant (20 μL) and 0.2% (w/v) Ehrlich reagent (4-dimethylaminobenzaldehyde, Sigma-Aldrich) in glacial acetic acid were mixed in a new clear bottom 384-well plate. This plate was then incubated at RT for 30 minute. The absorbance at 490 nm was measured on Envision plate reader.
# Compound IC50 values were calculated using the counts of 500 nM of a reference standard treatment as one hundred percent inhibition, and counts of no compound but DMSO treatment as zero percent inhibition.
# T1 sequence (P14902 whole entry): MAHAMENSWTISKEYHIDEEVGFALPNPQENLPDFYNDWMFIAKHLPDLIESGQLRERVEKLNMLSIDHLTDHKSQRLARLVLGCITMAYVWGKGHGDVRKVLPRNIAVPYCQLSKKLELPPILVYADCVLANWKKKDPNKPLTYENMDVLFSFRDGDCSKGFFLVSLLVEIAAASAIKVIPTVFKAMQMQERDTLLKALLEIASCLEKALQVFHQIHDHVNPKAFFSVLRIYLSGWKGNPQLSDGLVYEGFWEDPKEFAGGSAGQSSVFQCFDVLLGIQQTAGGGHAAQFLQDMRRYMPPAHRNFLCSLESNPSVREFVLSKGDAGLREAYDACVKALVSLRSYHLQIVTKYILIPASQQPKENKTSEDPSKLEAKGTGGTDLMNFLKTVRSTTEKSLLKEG
row,Molecule,pIC50
1,"CCCN(CC1CC1)c1cc(NC(=O)Nc2ccc(Cl)cc2Cl)cc(-c2ccccc2-c2nnn[nH]2)n1 [Example 83, 1-(2-(2-(1H-tetrazol-5-yl)phenyl)-6-((cyclopropylmethyl)(propyl)amino)pyridin-4-yl)-3-(2,4-dichlorophenyl)urea, TFA]",6.80
2,"CCCN(Cc1ccccc1)c1cc(NC(=O)C2(c3cccc(F)c3)CC2)cc(-c2ccccc2-c2nn[nH]n2)n1 [Example 224, N-(2-(2-(2H-tetrazol-5-yl)phenyl)-6-(benzyl(propyl)amino)pyridin-4-yl)-1-(3-fluorophenyl)cyclopropanecarboxamide]",5.52
3,"6-(2-(1H-tetrazol-5-yl)phenyl)-N2- benzyl-N4-(2-fluoropyridin-3-yl)- N2-isobutylpyridine-2,4-diamine, TFA [Example 54]",7.61
4,"CCCN(Cc1ccccc1)c1cc(NC(=O)Cc2cc(OC)cc(OC)c2)cc(-c2ccccc2-c2nn[nH]n2)n1 [Example 208, N-(2-(2-(2H-tetrazol-5-yl)phenyl)-6-(benzyl(propyl)amino)pyridin-4-yl)-2-(3,5-dimethoxyphenyl)acetamide]",6.26
5,"CCCN(Cc1ccccc1)c1cc(NC(=O)Nc2ccc(Cl)cc2Cl)cc(-c2cc(C)ccc2-c2nnn[nH]2)n1 [Example 302, 1-(2-(Benzyl(propyl)amino)-6-(5-methyl-2-(1H-tetrazol-5-yl)phenyl)pyridin-4-yl)-3-(2,4-dichlorophenyl)urea]",8.26
6,"CCCN(Cc1ccc(F)cc1)c1cc(NC(=O)Nc2ccc(Cl)cc2Cl)cc(-c2ccccc2-c2nnn[nH]2)n1 [Example 86, 1-(2-(2-(1H-tetrazol-5-yl)phenyl)-6-((4-fluorobenzyl)(propyl)amino)pyridin-4-yl)-3-(2,4-dichlorophenyl)urea]",8.07
7,"CCCN(c1cc(NC(=O)Nc2ccc(C)cc2)cc(-c2ccccc2-c2nnn[nH]2)n1)C1CCC(C)(C)CC1 [Example 119, 1-(2-(2-(1H-tetrazol-5-yl)phenyl)-6-((4,4-dimethylcyclohexyl) (propyl)amino)pyridin-4-yl)-3-(p-tolyl)urea]",5.70
8,"CC(C)CN(Cc1ccc(F)cc1)c1cc(Nc2ncc(F)cn2)cc(-c2ccccc2-c2nnn[nH]2)n1 [Example 44, 6-(2-(1H-tetrazol-5-yl)phenyl)-N2-(4-fluorobenzyl)-N4-(5-fluoropyrimidin-2-yl)-N2-isobutylpyridine-2,4-diamine, TFA]",7.45
9,"CCCN(Cc1ccccc1)c1cc(Nc2nc(-c3ccccc3)cs2)cc(-c2ccccc2-c2nnn[nH]2)n1 [Example 59, 6-(2-(1H-tetrazol-5-yl)phenyl)-N2-benzyl-N4-(4-phenylthiazol-2-yl)-N2-propylpyridine-2,4-diamine]",6.86
10,"CC(C)CN(Cc1ccccc1)c1cc(Nc2ccccc2C#N)cc(-c2ccccc2-c2nnn[nH]2)n1 [Example 194, 2-((2-(2-(1H-tetrazol-5-yl)phenyl)-6-(benzyl(isobutyl)amino)pyridin-4-yl)amino)benzonitrile]",6.64
11,"CCCN(Cc1ccccc1)c1cc(NC(=O)Nc2ccc(C)nn2)cc(-c2ccccc2-c2nnn[nH]2)n1 [Example 37, 1-(2-(2-(1H-tetrazol-5-yl)phenyl)-6-(benzyl(propyl)amino)pyridin-4-yl)-3-(6-methyl-pyridazin-3-yl) urea]",5.50
12,"Cc1ccc(CC(=O)Nc2cc(-c3ccccc3-c3nnn[nH]3)nc(N3CCN(Cc4ccccc4)C(=O)C3)c2)cc1 [Example 76, N-(2-(2-(1H-tetrazol-5-yl)phenyl)-6-(4-benzyl-3-oxopiperazin-1-yl)pyridin-4-yl)-2-(p-tolyl)acetamide, TFA]",6.00
13,"CC(C)CN(Cc1ccccc1)c1cc(Nc2ccc3c(c2)OC(F)(F)O3)cc(-c2ccccc2-c2nnn[nH]2)n1 [Example 182, 6-(2-(1H-tetrazol-5-yl)phenyl)-N2-benzyl-N4-(2,2-difluorobenzo[d][1,3]dioxol-5-yl)-N2-isobutylpyridine-2,4-diamine]",8.02
14,"CCCN(Cc1ccccc1)c1cc(NC(=O)Cc2cncc(Br)c2)cc(-c2ccccc2-c2nn[nH]n2)n1 [Example 199, N-(2-(2-(2H-tetrazol-5-yl)phenyl)-6-(benzyl(propyl)amino)-yl)-2-(5-bromopyridin-3-yl)acetamide]",6.62
15,CCCN(Cc1ccccc1)c1cc(NC(=O)NC2CCCCC2)cc(-c2ccccc2-c2nnn[nH]2)n1 [Example 300],5.28
16,"CCCN(Cc1ccccc1)c1cc(NC(=O)Nc2ccccc2C(F)(F)F)cc(-c2ccccc2-c2nnn[nH]2)n1 [Example 36, 1-(2-(2-(1H-tetrazol-5-yl)phenyl)-6-(benzyl(propyl)amino)pyridin-4-yl)-3-(2-(trifluoromethyl)phenyl)urea]",6.69
17,"CC(C)CN(Cc1ccc(F)cc1)c1cc(Nc2ccn3nccc3n2)cc(-c2ccccc2-c2nnn[nH]2)n1 [Example 42, 6-(2-(1H-tetrazol-5-yl)phenyl)-N2-(4-fluorobenzyl)-N2-isobutyl-N4-(pyrazolo[1,5-a]pyrimidin-5-yl)pyridine-2,4-diamine, TFA]",6.92
18,"CCC(CC(=O)O)c1cc(Nc2ccc3nc(C)sc3c2)cc(N(Cc2ccc(F)cc2)CC(C)C)n1 (single isomer, unassigned) [Example 249, 3-(6-((4-fluorobenzyl)(isobutyl)amino)-4-((2-methylbenzo [d]thiazol-6-yl)amino)pyridin-2-yl)pentanoic acid]",6.03
19,"CCCN(Cc1ccccc1)c1cc(NC(=O)Nc2cc(C)no2)cc(-c2ccccc2-c2nnn[nH]2)n1 [Example 266, 1-(2-(2-(1H-tetrazol-5-yl)phenyl)-6-(benzyl(propyl)amino)pyridin-4-yl)-3-(3-methylisoxazol-5-yl)urea]",5.57
20,"CCN(CCC(F)(F)F)c1cc(NC(=O)Cc2ccc(C)cc2)cc(-c2ccccc2-c2nnn[nH]2)n1 [Example 101, N-(2-(2-(1H-tetrazol-5-yl)phenyl)-6-(ethyl(3,3,3-trifluoropropyl)amino)pyridin-4-yl)-2-(p-tolyl)acetamide]",6.29
21,"CC(C)CN(Cc1ccccc1)c1cc(Nc2ccc3c(c2)OCO3)cc(-c2ccccc2-c2nnn[nH]2)n1 [Example 138, 6-(2-(1H-tetrazol-5-yl)phenyl)-N4-(benzo[d][1,3]dioxol-5-yl)-N2-benzyl-N2-isobutylpyridine-2,4-diamine]",7.92
22,CCN(Cc1ccccc1)c1cc(NC(=O)Cc2cc(C)no2)cc(-c2ccccc2-c2nnn[nH]2)n1 [Example 283],5.94
23,"Cc1nccnc1Nc1cc(-c2ccccc2-c2nnn[nH]2)nc(N(Cc2ccccc2)CC(C)C)c1 [Example 167, 6-(2-(1H-tetrazol-5-yl)phenyl)-N2-benzyl-N2-isobutyl-N4-(3-methylpyrazin-2-yl)pyridine-2,4-diamine]",6.69
24,"CCCN(Cc1ccccc1)c1cc(NC(=O)Nc2ccccc2F)cc(-c2cc(C)ccc2-c2nnn[nH]2)n1 [Example 88, 1-(2-(benzyl(propyl)amino)-6-(5-methyl-2-(1H-tetrazol-5-yl)phenyl)pyridin-4-yl)-3-(2-fluorophenyl)urea, TFA]",6.96
25,"CC(C)CN(Cc1ccc(F)cc1)c1cc(Nc2ccc(F)cn2)cc(-c2ccccc2-c2nnn[nH]2)n1 [Example 48, 6-(2-(1H-tetrazol-5-yl)phenyl)-N2-(4-fluorobenzyl)-N4-(5-fluoropyridin-2-yl)-N2-isobutylpyridine-2,4-diamine]",7.97
